Assay results as given in patent US20140161767A1, “FOLLICLE-STIMULATING HORMONE (FSH)/LYTIC DOMAIN FUSION CONSTRUCTS AND METHODS OF MAKING AND USING SAME” (BOARD OF SUPERVISORS OF LOUISIANA STATE UNIVERSITY AND …, priority 2012, published 2014).

Key:
SKOV-3 = assay: Cell viability after 4 hours (Cell Titer Glo), SKOV-3; type: cell-based, human; conditions: 4 h incubation; read-out: Activities [μM] SKOV-3 (p35)
Procedure: (§1) Human ovarian cancer cell lines OVCAR-3 (p 41), SKOV-3 (p 35) and the human uterine sarcoma cell line MES-SA-Dx5 (p 61) (multi-drug resistant clone), the human pancreatic cancer cell line Panc-1 (passage number 18), and human triple negative breast cancer cell line MDA-MB-231 (passage number 47) were grown in ATCC recommended medium, 10% fetal bovine serum, 100 IU/ml penicillin, 100 microg/ml streptomycin. Cells were typically seeded (2,000 cells per well) into 96 well plates and media was replaced after 48 hours of incubation. […] Each Phor-18-hFSH-β81-89 conjugate provided in lyophilized form was dissolved in saline and added to cells. The duration of incubation was 4 hours at 37° C. Cell viability was assessed after 4 hours using a luminometric assays (Promega, Cell Titer Glo, G755B, lot #00000031421). Controls contained saline or 0.1% triton as reference for 0 and 100% cell death, respectively.
(§2) Data were processed and analyzed using GraphPad Prism version 5.00 for Windows, GraphPad Software, San Diego Calif. USA, www.graphpad.com”. Statistical analysis for significance was determined by a two-tailed Student's T-test. Each study was conducted to achieve an N of at least 6.
(§3) In vitro activities were expressed as IC50 values for each cell line, time point and compound tested that were calculated using the Hill equation (Graph Pad Prizm software).

MDA-MB-231 = assay: Cell viability after 4 hours (Cell Titer Glo), MDA-MB-231; type: cell-based, human; conditions: 4 h incubation; read-out: Activities [μM] MDA-MB-231 (p47)
Procedure: as §1, §2, §3

MDA-MB-435S.luc cells = assay: Cell toxicity screening (MTT assay) in MDA-MB-435S.luc breast cancer cells; type: cell-based, human
Source text: This example describes screening for cell toxicity (IC50) and hemolytic activity using a human breast cancer cell line.
Eighteen βCG-ala and eight LHRH conjugated fusion constructs were studied and compared to Phor21-βCG-ala and unconjugated Phor21 and Phor 18 (338913)=CLIP71 peptides. The human breast cancer cell line MDA-MB-435S.luc, which over expresses chorionic gonadotrophin (CG) and luteinizing hormone-releasing hormone (LHRH) receptors, was used to screen at passage numbers 248-252. The MDA-MB-435S.luc cell line was constructed from the MDA-MB-435S cell line obtained from the American Type Cell Culture Collection by stable transfection with the plasmid PRC/CMV-luc containing the Photinus pyralis luciferase gene and an […] by lipofection. The stably transfected cell line was selected using G418 and the clones with the highest expression for the luciferase gene were tested for their LH and LHRH receptor expression.
MDA-MB-435S.luc cells were grown in Leibovitz's L 15 medium, 10% fetal bovine serum, 0.01 mg/ml bovine insulin, 100 IU/ml penicillin, 100 microg/ml streptomycin. The cells were cultured in tight closed flasks. […]
Data were processed and analyzed using Graph Pad Prizm 4™ software (Graph Pad Prizm, Inc). Statistical analysis for significance was determined by a two-tailed Student's T-test. […]

[1] = tested on: MDA-MB-435S.luc xenograft; assay: Mouse xenograft model of breast cancer, LHRH fusion constructs; type: in vivo, mice
Procedure: For LHRH fusion constructs, the mouse xenograft model for breast cancer was used. In brief, Nu/Nu female mice, outbred strain, age 5 weeks (Charles River) were injected subcutaneously with a MDA-MB-435S.luc/Matrigel suspension (1×10^6 cells). Treatment was started on day 21 after tumor cell injection and continued on day 26 and 29. The doses for weekly fusion construct injections were 2, 0.2 and 0.02 mg/kg body weight, given as a bolus single injection. All mice were necropsied 34 days after tumor cell injection—baseline values for tumor weights were obtained by sacrificing 8 mice at treatment start. Primary tumors, liver, kidney, pancreas, heart, lung, and spleen were collected and prepared for histological evaluation in formalin. Tumor weights were recorded at necropsy, part of the tumors were frozen at −80° C. for luciferase assay determination.
Characteristics of tumors at necropsy are summarized in FIG. 10: (A) tumor weight, (B) changes of tumor weights compared to baseline, (C) total number of live tumor cells, (D) changes of total live tumor cells compared to baseline, and (E) bodyweights at baseline and necropsy. Viability of tumor cells was determined at the end of the study when tumors were measured for luciferase activity. Treatment efficacy was calculated as difference between measurements at the beginning of treatment compared to the measurement at the end of study (FIGS. 10B and 10D).

MDA-MB-435S xenograft = assay: MDA-MB-435S xenograft, multiple dose regimen; type: in vivo, mice; conditions: 0.002 and 0.2 mg/kg
Procedure: In order to determine the minimal effective dose necessary to reduce MDA-MB-435S xenograft weights in a multiple dose regimen, Nu/Nu female mice, outbred strain, age 8 weeks (Charles River), were injected (s.c.) into the interscapular region with a MDA-MB-435S (passage #253)/Matrigel suspension (2×10^6 cells/mouse) as previously described above. […] The doses were given as a single bolus intravenous injection via lateral tail vein on days 15, 16, 17, 20, 21, 22, 23, 27, 28, 29, 30, 33, 34, 35, 36, 37, 38, 40, 41, 42 after tumor cell inoculation. Saline injections served as control groups.
Each treatment group consisted of 16 mice. During the entire study tumor volumes were recorded twice weekly. Final necropsy was conducted on day 45 after tumor cell injection. […] due to occlusion of the tail vein in most mice. At study endpoint body weight, tumor weights were determined and fixed in phosphate buffered 10% formalin.

MCF-7 xenograft = assay: MCF-7 breast cancer xenograft; type: in vivo, mice; conditions: MCF-7, 2 × 3 wk, 19 d
Procedure: In vivo efficacy studies were conducted as monotherapy, or a combination therapy with standard of care treatments in nude mice bearing human breast cancer xenografts: MDA-MB-435S.luc (s.c.), MCF-7 (estrogen receptor alpha positive), human ovarian cancer xenografts: OVCAR-3, (s.c.), human prostate cancer xenografts: PC-3 (androgen receptor negative).
Mice were sacrificed one week after the last injection and blood collected for chemistry panel, tumor weights and body weights were recorded. Part of the tumors were fixed in PBS buffered 10% formalin for histological evaluation.

Substance	IC50 (SKOV-3) [µM]	IC50 (MDA-MB-231) [µM]	fold more potent (toxic) than Phor21-βCG-ala (MDA-MB-435S.luc cells) [fold]	Concentrations resulting in tumor weights similar to baseline ([1]; mouse, in vivo) [mg/kg]	In vivo tumor efficacy compared to reference Phor21-βCG-ala (tumor weight, viable tumor cells) ([1]; mouse, in vivo)	Tumor volume after 30 days compared to baseline ([1]; p<0.01)	Tumor response (MDA-MB-435S xenograft)	Histological examination of tumors (MDA-MB-435S xenograft; H&E)	Median Tumor Weight vs Saline P < 0.05 (dose, growth delay) (MCF-7 xenograft) [mg/kg growth]
KFAKFAK KFAKFAK KFAK [Phor18]	21.7 ± 3.6	18.9 ± 0.8							
KFAKFAKKFAKFAKKFAKQHWSYGLRPG [Phor18-LHRH]			2	0.2	Equally effective	smallest tumor volumes	tumor regression	eradication of tumor cells	0.02
